# Source: paper PMC9386376, “Discovery of spirooxindole-derived small-molecule compounds as novel HDAC/MDM2 dual inhibitors and investigation of their anticancer activity” (Frontiers in Oncology, 2022)
# Tests used:
# [1] = system: HCT116 cells; experiment: MTT antiproliferative assay, HCT116; settings: Homo sapiens, HCT-116, read-out: IC50 HCT116
# Protocol: (§1) The cytotoxicity assay was performed with MTT method as previously described ([73], [88], [89]).
# [2] = system: A431 cells; experiment: MTT antiproliferative assay, A431; settings: Homo sapiens, A-431, read-out: IC50 A431
# Protocol: as §1
# [3] = target: T1, GST-tagged MDM2 (Homo sapiens, UniProt Q00987); experiment: HTRF enzyme inhibition assay, MDM2; assay type: biochemical; settings: compound at 1 μM
# T1 construct: purchased Cisbio Co. Ltd
# T1 sequence (Q00987 whole entry): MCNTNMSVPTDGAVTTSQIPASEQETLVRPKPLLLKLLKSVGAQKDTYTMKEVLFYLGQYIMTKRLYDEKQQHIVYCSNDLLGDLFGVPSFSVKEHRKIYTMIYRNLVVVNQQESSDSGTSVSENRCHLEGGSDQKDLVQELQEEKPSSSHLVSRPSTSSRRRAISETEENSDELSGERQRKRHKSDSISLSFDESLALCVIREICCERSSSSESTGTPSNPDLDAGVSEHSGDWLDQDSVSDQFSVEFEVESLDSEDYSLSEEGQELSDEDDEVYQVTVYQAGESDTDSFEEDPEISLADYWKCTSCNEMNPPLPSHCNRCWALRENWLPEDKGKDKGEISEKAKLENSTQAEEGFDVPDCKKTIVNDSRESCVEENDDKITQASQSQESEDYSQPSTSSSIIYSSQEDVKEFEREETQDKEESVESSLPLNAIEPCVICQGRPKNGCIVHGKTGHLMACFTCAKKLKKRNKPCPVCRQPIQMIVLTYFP
# [4] = system: MCF-7 cells; experiment: MTT antiproliferative assay, MCF-7; settings: Homo sapiens, MCF7, read-out: IC50 MCF-7
# Protocol: as §1
# [5] = target: HDAC1 (Homo sapiens, UniProt Q13547); experiment: HTRF enzyme inhibition assay, HDAC1; settings: read-out: % enzyme inhibition HDAC
# HDAC1, sequence (Q13547 whole entry): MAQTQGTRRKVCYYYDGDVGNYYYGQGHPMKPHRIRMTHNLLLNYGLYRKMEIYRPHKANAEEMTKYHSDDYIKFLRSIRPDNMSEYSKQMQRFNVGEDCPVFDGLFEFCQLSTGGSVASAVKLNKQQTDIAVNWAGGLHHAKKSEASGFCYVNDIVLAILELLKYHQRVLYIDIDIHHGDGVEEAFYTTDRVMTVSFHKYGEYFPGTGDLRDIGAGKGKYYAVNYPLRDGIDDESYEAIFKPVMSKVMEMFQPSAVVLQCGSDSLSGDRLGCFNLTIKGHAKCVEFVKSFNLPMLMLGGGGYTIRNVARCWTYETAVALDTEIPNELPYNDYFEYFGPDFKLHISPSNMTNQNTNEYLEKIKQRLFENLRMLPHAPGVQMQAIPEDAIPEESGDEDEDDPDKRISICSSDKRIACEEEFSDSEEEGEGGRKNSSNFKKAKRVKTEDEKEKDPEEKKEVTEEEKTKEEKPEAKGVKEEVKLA
# Protocol: The data obtained were processed by the ratio method, and the inhibition rates of MDM2 and HDAC1 were calculated. The detailed experimental procedures are according to the manufacturer’s protocols.
# [6] = system: MCF-7 cells; experiment: Annexin V-FITC/PI double staining, flow cytometry; assay type: cell-based, human; settings: MCF-7, 5.0 μM, 24 h
# Protocol: It was reported that the inactivation of HDAC and/or MDM2 could increase the percentage of apoptosis cells ([85]–[87]). Therefore, three methods were applied to assess the effect of MDM2-HDAC dual inhibitor 11b on the apoptosis of MCF-7 cells. […] Subsequently, the annexin V-FITC/propidium iodide (PI) double staining method was carried out to quantitatively detect the effect of compound 11b on cell apoptosis (Figure 9B).
# Cells were collected after incubation, then fixed with 75% ice-cold ethanol and stored at -20°C for 1 h. The cells were then harvested with 0.25% trypsin (without EDTA) and centrifuged at 2000 rpm for 5min. Then, the harvested cells were washed with ice-cold PBS twice and resuspended in 500 μL of 1× binding buffer, which was then added to 5 μL of annexin V-FITC and incubated at room temperature in the dark for 15 min. After adding 10 μL of propidium iodide (PI), the cells were incubated at room temperature in the dark. After another 15 min incubation, the cells were collected and analyzed by flow cytometry.
SMILES,IC50 [1],IC50 [2],inhibition at 1 µM [3],IC50 [4],melting point,inhibition at 1 µM [5],apoptotic cells [6]
"O=C(COCC(=O)Nc1ccc([C@@H]2[C@H]3CSCN3[C@]3(C(=O)Nc4cc(Cl)ccc43)[C@H]2C(=O)c2ccccc2)cc1)NO [7u, N-(4-((3R,6'S,7'R,7a'S)-6'-benzoyl-6-chloro-2-oxo-1',6',7',7a'-tetrahydro-3'H-spiro[indoline-3,5'-pyrrolo[1,2-c]thiazol]-7'-yl)phenyl)-2-(2-(hydroxyamino)-2-oxoethoxy)acetamide]",4.59 ± 0.91 µM,3.64 ± 0.56 µM,61%,3.47 ± 0.92 µM,167.1 to 168.5 °C,54%,–
"O=C(CCCCC(=O)N1CCC(C(=O)Nc2ccc([C@@H]3[C@H]4CSCN4[C@]4(C(=O)Nc5cc(Cl)ccc54)[C@H]3C(=O)c3ccccc3)cc2)CC1)NO [11a, N-(4-((3R,6'S,7'R,7a'S)-6'-benzoyl-6-chloro-2-oxo-1',6',7',7a'-tetrahydro-3'H-spiro[indoline-3,5'-pyrrolo[1,2-c]thiazol]-7'-yl)phenyl)-1-(6-(hydroxyamino)-6-oxohexanoyl)piperidine-4-carboxamide]",4.32 ± 0.9 µM,4.62 ± 0.78 µM,62%,4.48 ± 1.46 µM,170.3 to 171.5 °C,70%,–
"O=C(CCCCCCC(=O)Nc1ccc([C@@H]2[C@@H](c3ccccc3)N[C@]3(C(=O)Nc4cc(Cl)ccc43)[C@H]2C(=O)c2ccccc2)cc1)NO [15a, N^1-(4-((3R,3'S,4'R,5'S)-3'-benzoyl-6-chloro-2-oxo-5'-phenylspiro[indoline-3,2'-pyrrolidin]-4'-yl)phenyl)-N^8-hydroxyoctanediamide]",8.45 ± 2.44 µM,6.99 ± 0.92 µM,67%,5.71 ± 1.03 µM,146.5 to 147.6 °C,61%,–
"COc1ccc(C2=N[C@@H](c3ccc(Cl)cc3)[C@@H](c3ccc(Cl)cc3)N2C(=O)N2CCNC(=O)C2)c(OC(C)C)c1 [Nutlin-3, reference compound]",11 ± 2.42 µM,9.72 ± 1.66 µM,–,9.75 ± 2.97 µM,–,–,28.23%
"O=C(CCCCCCC(=O)Nc1ccccc1)NO [SAHA, vorinostat]",–,–,–,–,–,–,7.56%
